Assay results as given in patent US7265103B2, “Substituted amino isoxazoline derivatives and their use as anti-depressants” (Janssen Pharmaceutica NV., priority 2002, dated 2007).

Target: T1, h5-HT transporter (Homo sapiens, UniProt P31645)
T1 construct: Human platelet membranes (Oceanix Biosciences Corporation, Hanover, Md., USA) were thawed; tissue Oceanix Biosciences Corporation; host or cells: human platelet membranes
Experiment: Radioligand binding experiment for 5-HT transporter ([3H]paroxetine)
Conditions: human platelet membranes, [3H]paroxetine 0.5 nM
In short: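 Competition binding on human platelet membranes (50-100 μg protein) in 50 mM Tris-HCl, 120 mM NaCl, 5 mM KCl with 0.5 nM [3H]paroxetine, 60 min at 25 °C, filtration and scintillation counting. Non-specific binding defined with 1 μM imipramine; pIC50 from nonlinear sigmoidal fits of percent total binding.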

T1 sequence (P31645 whole entry): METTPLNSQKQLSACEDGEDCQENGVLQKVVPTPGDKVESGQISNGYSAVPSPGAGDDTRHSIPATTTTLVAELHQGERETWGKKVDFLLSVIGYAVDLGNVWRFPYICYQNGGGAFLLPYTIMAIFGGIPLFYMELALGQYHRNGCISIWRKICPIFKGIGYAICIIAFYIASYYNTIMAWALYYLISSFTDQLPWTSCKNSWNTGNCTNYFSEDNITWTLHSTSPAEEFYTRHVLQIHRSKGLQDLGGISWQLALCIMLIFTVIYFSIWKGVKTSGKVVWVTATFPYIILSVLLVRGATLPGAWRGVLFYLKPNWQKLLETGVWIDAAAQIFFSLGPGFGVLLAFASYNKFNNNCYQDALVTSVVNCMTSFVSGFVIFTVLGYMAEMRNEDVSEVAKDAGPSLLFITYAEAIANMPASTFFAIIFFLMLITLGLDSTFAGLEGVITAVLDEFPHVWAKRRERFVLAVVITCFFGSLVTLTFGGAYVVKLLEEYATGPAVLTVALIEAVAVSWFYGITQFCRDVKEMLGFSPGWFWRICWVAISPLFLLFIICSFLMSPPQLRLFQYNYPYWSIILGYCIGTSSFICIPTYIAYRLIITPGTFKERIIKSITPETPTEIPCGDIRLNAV

Row | IC50 | SMILES
1 | 158 nM | CC(=Cc1ccccc1)CN1CCN(CC2ON=C3c4ccc(N(C)c5ccccc5)cc4OCC32)CC1 (centres unmarked) [Compound 41]
2 | 63.1 nM | CC(=Cc1ccc(F)cc1)CN1CCN(CC2ON=C3c4ccc(N5CCN(CC=Cc6ccccc6)CC5)cc4OCC32)CC1 (centres unmarked) [Compound 81]
3 | 3.16 nM | CC(=Cc1ccc(F)cc1)CN1CCN(CC2ON=C3c4ccc(N5CCN(C)CC5)cc4OCC32)CC1 (centres unmarked) [Compound 77]

The next lines start with the molecule.

Row | SMILES | IC50
4 | CC(=Cc1ccccc1)CN1CCN(CC2ON=C3c4ccc(NC(=O)Nc5cccc(F)c5)cc4OCC32)CC1 (centres unmarked) [Compound 65] | 1580 nM
5 | CC(=Cc1ccccc1)CN1CCN(CC2ON=C3c4ccc(NC(=O)NC5CCCCC5)cc4OCC32)CC1 (centres unmarked) [Compound 62] | 39.8 nM
6 | CC(=Cc1ccccc1)CN1CCN(CC2ON=C3c4ccc(Nc5cccc(C#N)c5)cc4OCC32)CC1 (centres unmarked) [Compound 44] | 15.8 nM
7 | COc1cc2c(cc1NCCN(C)C)OCC1C2=NOC1CN1CCN(C/C(C)=C/c2ccccc2)CC1 (centres unmarked) [Compound 9] | 5.01 nM
8 | c1ccc2cc(CN3CCN(CC4ON=C5c6cc7c(cc6OCC54)NCCO7)CC3)ccc2c1 (centres unmarked) [Compound 92] | 5.01 nM

Tested on: not given
Experiment: not given
Conditions: not given

Row | melting point | SMILES
9 | 125.9 to 139.7 °C | CC(=Cc1ccccc1)CN1CCN(CC2ON=C3c4ccc(N(C)c5ccccc5)cc4OCC32)CC1 (centres unmarked) [Compound 41]
10 | 154.9 to 160.4 °C | CC(=Cc1ccc(F)cc1)CN1CCN(CC2ON=C3c4ccc(N5CCN(CC=Cc6ccccc6)CC5)cc4OCC32)CC1 (centres unmarked) [Compound 81]
11 | 147.3 to 150.6 °C | CC(=Cc1ccc(F)cc1)CN1CCN(CC2ON=C3c4ccc(N5CCN(C)CC5)cc4OCC32)CC1 (centres unmarked) [Compound 77]

Continued, molecule first:

Row | SMILES | melting point
12 | CC(=Cc1ccccc1)CN1CCN(CC2ON=C3c4ccc(NC(=O)Nc5cccc(F)c5)cc4OCC32)CC1 (centres unmarked) [Compound 65] | 186.8 to 188.5 °C
13 | CC(=Cc1ccccc1)CN1CCN(CC2ON=C3c4ccc(NC(=O)NC5CCCCC5)cc4OCC32)CC1 (centres unmarked) [Compound 62] | 121.1 to 136.5 °C
14 | CC(=Cc1ccccc1)CN1CCN(CC2ON=C3c4ccc(Nc5cccc(C#N)c5)cc4OCC32)CC1 (centres unmarked) [Compound 44] | 152.7 to 162.6 °C
15 | COc1cc2c(cc1NCCN(C)C)OCC1C2=NOC1CN1CCN(C/C(C)=C/c2ccccc2)CC1 (centres unmarked) [Compound 9] | 154.5 to 157.9 °C
16 | c1ccc2cc(CN3CCN(CC4ON=C5c6cc7c(cc6OCC54)NCCO7)CC3)ccc2c1 (centres unmarked) [Compound 92] | 85.3 to 103.9 °C

Target: T2, hα2C receptor (Homo sapiens, UniProt P18825)
T2 construct: expressed in transfected cells; host or cells: CHO cells
T2 sequence (P18825 1-462): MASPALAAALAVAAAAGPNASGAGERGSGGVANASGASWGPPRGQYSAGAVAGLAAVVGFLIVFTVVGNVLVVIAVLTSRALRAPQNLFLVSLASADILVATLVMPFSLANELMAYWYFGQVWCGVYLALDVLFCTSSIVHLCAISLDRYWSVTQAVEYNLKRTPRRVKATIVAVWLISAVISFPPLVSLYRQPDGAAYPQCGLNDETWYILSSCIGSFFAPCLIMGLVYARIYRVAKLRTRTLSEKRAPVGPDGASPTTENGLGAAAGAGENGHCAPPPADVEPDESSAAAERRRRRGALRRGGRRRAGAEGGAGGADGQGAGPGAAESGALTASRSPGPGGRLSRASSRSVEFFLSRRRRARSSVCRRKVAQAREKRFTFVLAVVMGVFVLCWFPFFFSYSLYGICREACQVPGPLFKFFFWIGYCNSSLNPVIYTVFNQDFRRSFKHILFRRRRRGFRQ
Experiment: Radioligand binding experiment for α2C-adrenergic receptor ([3H]-raulwolscine)
Conditions: CHO cell membranes with human α2C receptor, [3H]raulwolscine 1 nM; read-out: pIC50 α2C (converted)
In short: (§1)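 Membranes from CHO cells stably expressing human α2A or α2C receptors (sodium butyrate-induced) incubated with 1 nM [3H]raulwolscine in 25 mM glycylglycine pH 8.0 for 60 min at 25° C, then filtered. Non-specific binding defined with 1 μM oxymetazoline (α2A) or 1 μM spiroxatrine (α2C); pIC50 from sigmoidal competition curves.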

Row | IC50 | SMILES
17 | 25.1 nM | CC(=Cc1ccccc1)CN1CCN(CC2ON=C3c4ccc(N(C)c5ccccc5)cc4OCC32)CC1 (centres unmarked) [Compound 41]
18 | 20 nM | CC(=Cc1ccc(F)cc1)CN1CCN(CC2ON=C3c4ccc(N5CCN(CC=Cc6ccccc6)CC5)cc4OCC32)CC1 (centres unmarked) [Compound 81]
19 | 2.51 nM | CC(=Cc1ccc(F)cc1)CN1CCN(CC2ON=C3c4ccc(N5CCN(C)CC5)cc4OCC32)CC1 (centres unmarked) [Compound 77]

Further lines, the molecule ahead of its results:

Row | SMILES | IC50
20 | CC(=Cc1ccccc1)CN1CCN(CC2ON=C3c4ccc(NC(=O)Nc5cccc(F)c5)cc4OCC32)CC1 (centres unmarked) [Compound 65] | 31.6 nM
21 | CC(=Cc1ccccc1)CN1CCN(CC2ON=C3c4ccc(NC(=O)NC5CCCCC5)cc4OCC32)CC1 (centres unmarked) [Compound 62] | 6.31 nM
22 | CC(=Cc1ccccc1)CN1CCN(CC2ON=C3c4ccc(Nc5cccc(C#N)c5)cc4OCC32)CC1 (centres unmarked) [Compound 44] | 20 nM
23 | COc1cc2c(cc1NCCN(C)C)OCC1C2=NOC1CN1CCN(C/C(C)=C/c2ccccc2)CC1 (centres unmarked) [Compound 9] | 1000 nM
24 | c1ccc2cc(CN3CCN(CC4ON=C5c6cc7c(cc6OCC54)NCCO7)CC3)ccc2c1 (centres unmarked) [Compound 92] | 2.51 nM

Target: T3, hα2A receptor (Homo sapiens, UniProt P08913)
T3 construct: expressed in transfected cells; host or cells: CHO cells
T3 sequence (P08913 1-465): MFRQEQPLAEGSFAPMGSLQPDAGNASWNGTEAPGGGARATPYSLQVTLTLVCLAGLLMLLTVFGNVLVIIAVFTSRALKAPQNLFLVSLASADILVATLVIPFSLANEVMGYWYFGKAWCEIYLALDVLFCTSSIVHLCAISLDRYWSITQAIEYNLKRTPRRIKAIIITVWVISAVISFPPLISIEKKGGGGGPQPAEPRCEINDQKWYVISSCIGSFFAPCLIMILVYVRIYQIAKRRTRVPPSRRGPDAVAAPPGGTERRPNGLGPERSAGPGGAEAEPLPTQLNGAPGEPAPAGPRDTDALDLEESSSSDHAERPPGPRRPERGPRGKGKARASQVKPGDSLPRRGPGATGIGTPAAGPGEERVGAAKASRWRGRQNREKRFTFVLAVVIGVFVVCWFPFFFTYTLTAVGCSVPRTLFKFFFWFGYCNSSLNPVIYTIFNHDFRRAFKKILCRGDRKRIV
Experiment: Radioligand binding experiment for α2A-adrenergic receptor ([3H]-raulwolscine)
Conditions: CHO cell membranes with human α2A receptor, [3H]raulwolscine 1 nM; read-out: pIC50 α2A (converted)
In short: as §1

Row | IC50 | SMILES
25 | 25.1 nM | CC(=Cc1ccccc1)CN1CCN(CC2ON=C3c4ccc(N(C)c5ccccc5)cc4OCC32)CC1 (centres unmarked) [Compound 41]
26 | 126 nM | CC(=Cc1ccc(F)cc1)CN1CCN(CC2ON=C3c4ccc(N5CCN(CC=Cc6ccccc6)CC5)cc4OCC32)CC1 (centres unmarked) [Compound 81]
27 | 39.8 nM | CC(=Cc1ccc(F)cc1)CN1CCN(CC2ON=C3c4ccc(N5CCN(C)CC5)cc4OCC32)CC1 (centres unmarked) [Compound 77]

Further lines, the molecule ahead of its results:

Row | SMILES | IC50
28 | CC(=Cc1ccccc1)CN1CCN(CC2ON=C3c4ccc(NC(=O)Nc5cccc(F)c5)cc4OCC32)CC1 (centres unmarked) [Compound 65] | 79.4 nM
29 | CC(=Cc1ccccc1)CN1CCN(CC2ON=C3c4ccc(NC(=O)NC5CCCCC5)cc4OCC32)CC1 (centres unmarked) [Compound 62] | 25.1 nM
30 | CC(=Cc1ccccc1)CN1CCN(CC2ON=C3c4ccc(Nc5cccc(C#N)c5)cc4OCC32)CC1 (centres unmarked) [Compound 44] | 15.8 nM
31 | COc1cc2c(cc1NCCN(C)C)OCC1C2=NOC1CN1CCN(C/C(C)=C/c2ccccc2)CC1 (centres unmarked) [Compound 9] | 5.01 nM
32 | c1ccc2cc(CN3CCN(CC4ON=C5c6cc7c(cc6OCC54)NCCO7)CC3)ccc2c1 (centres unmarked) [Compound 92] | 20 nM
